# Reference: paper PMC5603230 (Journal of medicinal chemistry, 2017)
# Experiments:
# [1] = target: T1, PHGDH (Homo sapiens, UniProt O43175); conditions: coupled-enzyme assay
# T1 sequence (O43175 1-533): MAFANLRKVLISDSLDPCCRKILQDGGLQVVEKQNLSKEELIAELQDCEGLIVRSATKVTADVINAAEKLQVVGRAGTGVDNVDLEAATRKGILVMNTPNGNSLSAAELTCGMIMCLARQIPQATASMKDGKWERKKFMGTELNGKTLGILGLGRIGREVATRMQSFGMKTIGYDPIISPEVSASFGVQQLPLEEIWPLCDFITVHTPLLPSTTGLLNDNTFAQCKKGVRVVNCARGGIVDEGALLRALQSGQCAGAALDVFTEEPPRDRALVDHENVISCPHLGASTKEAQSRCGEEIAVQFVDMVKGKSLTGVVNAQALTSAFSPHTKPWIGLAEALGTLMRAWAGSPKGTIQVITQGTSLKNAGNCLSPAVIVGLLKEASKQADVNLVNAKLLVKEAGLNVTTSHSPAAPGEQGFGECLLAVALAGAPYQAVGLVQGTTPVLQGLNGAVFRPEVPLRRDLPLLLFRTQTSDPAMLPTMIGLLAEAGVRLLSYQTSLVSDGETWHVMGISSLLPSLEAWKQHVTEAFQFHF
# [2] = test system: SiHa; experiment: Cell proliferation inhibition, SiHa in serine-replete or -deplete medium; type: cell-based, human; conditions: ratio of IC50 in serine-replete to serine-deplete medium
# [3] = test system: HL-60 shCTRL; experiment: Cell proliferation inhibition, HL-60 shCTRL in serine-replete or -deplete medium; type: cell-based, human; conditions: ratio of IC50 in serine-replete to serine-deplete medium
# [4] = target: T1, PHGDH; experiment: Ki measurement / competition assay by titrating 3-PG or NAD+; type: biochemical
# [5] = target: T1, PHGDH; experiment: Rapid dilution; type: biochemical; conditions: 160 μM, 45 min at 37 °C, diluted 10-fold
SMILES,"PHGDH inhibition (IC50, μM) [1]",SiHa IC50+Ser/IC50−Ser [2],HL-60 shCTRL IC50+Ser/IC50−Ser [3],mode of action with respect to both substrates (3-PG and NAD+) [4],recovery of enzymatic activity after dilution [5]
"O=C(C(=S)N1CCOCC1)c1ccccc1Cl [compound 23, 1-(2-Chlorophenyl)-2-morpholino-2-thioxoethanone]",no inhibition,–,–,–,–
O=C(Nc1ccccc1[N+](=O)[O-])c1ccc(Cl)cc1 [compound 12],–,>1.7,>1.2,–,–
"O=C(C(=S)N1CCOCC1)c1ccccc1 [compound 19, 1-Phenyl-2-morpholino-2-thioxoethanone]",–,–,>5.5,noncompetitive,enzymatic activity is not recovered after dilution
"O=C(C(=S)N1CCOCC1)c1cccc(Cl)c1 [compound 24, 1-(3-Chlorophenyl)-2-morpholino-2-thioxoethanone]",no inhibition,–,–,–,–
